Measured values reported in patent US10745398B2, “2-(het)aryl-substituted fused heterocycle derivatives as pesticides” (Bayer CropScience Aktiengesellschaft, priority 2015, dated 2020).

Tests used:
[1] = log P (neutral) by HPLC on reversed-phase column (C 18), EEC Directive 79/831 Annex V.A8; assay type: physicochemical; details: HPLC reversed-phase C 18, 55° C., neutral range pH 7.8, ammonium hydrogencarbonate/acetonitrile; for chromatographic logP: reversed-phase HPLC column (C 18)
[2] = test system: adult cat fleas (Ctenocephalides felis); assay: Ctenocephalides felis - in vitro contact tests with adult cat fleas; assay type: in vivo; details: application rate 5 μg/cm^2 (500 g/ha), after 48 h
Protocol: For the coating of the test tubes, 9 mg of active compound are first dissolved in 1 ml of acetone p.a. and then diluted to the desired concentration with acetone p.a. 250 μl of the solution are distributed homogeneously on the inner walls and the base of a 25 ml test tube by turning and rocking on an orbital shaker (rocking rotation at 30 rpm for 2 h). With 900 ppm active compound solution and internal surface 44.7 cm^2, given homogeneous distribution, an area-based dose of 5 μg/cm^2 is achieved.
After the solvent has evaporated off, the tubes are populated with 5-10 adult cat fleas (Ctenocephalides felis), sealed with a perforated plastic lid and incubated in a horizontal position at room temperature and ambient humidity. After 48 h, efficacy is determined. To this end, the test tubes are stood upright and the fleas are knocked to the base of the tube. Fleas which remain motionless at the base or move in an uncoordinated manner are considered to be dead or moribund.
100% efficacy means that all the fleas were dead or moribund. 0% efficacy means that no fleas were harmed.

[3] = test system: engorged adult female cattle ticks (Boophilus microplus); assay: Boophilus microplus - injection test; assay type: in vivo; details: application rate 20 μg/animal, assessed after 7 days
Protocol: (§1) Solvent: dimethyl sulphoxide
To produce a suitable active compound preparation, 10 mg of active compound are mixed with 0.5 ml of solvent and the concentrate is diluted with solvent to the desired concentration.
1 μl of the active compound solution is injected into the abdomen of 5 engorged adult female cattle ticks (Boophilus microplus). The animals are transferred into dishes and kept in a climate-controlled room.
Efficacy is assessed after 7 days by laying of fertile eggs. Eggs which are not visibly fertile are stored in a climate-controlled cabinet until the larvae hatch after about 42 days. An efficacy of 100% means that none of the ticks has laid any fertile eggs; 0% means that all the eggs are fertile.

[4] = test system: unfed adult cat fleas (Ctenocephalides felis); assay: Ctenocephalides felis - oral test; assay type: in vivo; details: application rate 100 ppm in citrated cattle blood, after 2 days
Protocol: as §1
To produce a suitable active compound preparation, 10 mg of active compound are mixed with 0.5 ml of dimethyl sulphoxide. Dilution with citrated cattle blood gives the desired concentration.
About 20 unfed adult cat fleas (Ctenocephalides felis) are placed into a chamber which is closed at the top and bottom with gauze. A metal cylinder whose bottom end is closed with parafilm is placed onto the chamber. The cylinder contains the blood/active compound preparation, which can be imbibed by the fleas through the parafilm membrane.
After 2 days, the kill in % is determined. 100% means that all of the fleas have been killed; 0% means that none of the fleas have been killed.

[5] = test system: L1 larvae of the Australian sheep blowfly (Lucilia cuprina); assay: Lucilia cuprina test; assay type: in vivo; details: application rate 100 ppm, after 2 days
Protocol: as §1
(§2) To produce a suitable active compound preparation, 10 mg of active compound are mixed with 0.5 ml of dimethyl sulphoxide, and the concentrate is diluted with water to the desired concentration.
About 20 L1 larvae of the Australian sheep blowfly (Lucilia cuprina) are transferred into a test vessel containing minced horsemeat and the active compound preparation of the desired concentration.
After 2 days, the kill in % is determined. 100% means that all the larvae have been killed; 0% means that no larvae have been killed.

[6] = test system: adult houseflies (Musca domestica); assay: Musca domestica test; assay type: in vivo; details: application rate 100 ppm, after 2 days
Protocol: as §1, §2
Vessels containing a sponge treated with sugar solution and the active compound preparation of the desired concentration are populated with 10 adult houseflies (Musca domestica).
After 2 days, the kill in % is determined. 100% means that all of the flies have been killed; 0% means that none of the flies have been killed.

[7] = test system: green peach aphid (Myzus persicae); assay: Myzus persicae - spray test; assay type: in vivo; details: application rate 500 g/ha, Chinese cabbage leaf discs, after 5-6 days
Protocol: Solvent: 78 parts by weight of acetone • • 1.5 parts by weight of dimethylformamide
(§3) Emulsifier: alkylaryl polyglycol ether
(§4) To produce a suitable active compound preparation, 1 part by weight of active compound is dissolved with the stated parts by weight of solvent and made up with water containing an emulsifier concentration of 1000 ppm until the desired concentration is attained. To produce further test concentrations, the preparation is diluted with emulsifier-containing water.
Discs of Chinese cabbage leaves (Brassica pekinensis) infested by all stages of the green peach aphid (Myzus persicae) are sprayed with an active compound preparation of the desired concentration.
After 5-6 days, the efficacy in % is determined. 100% means that all the aphids have been killed; 0% means that no aphids have been killed.

[8] = test system: larvae of the mustard beetle (Phaedon cochleariae); assay: Phaedon cochleariae - spray test; assay type: in vivo; details: application rate 500 g/ha, Chinese cabbage leaf discs, after 7 days
Protocol: (§5) Solvent: 78.0 parts by weight of acetone • • 1.5 parts by weight of dimethylformamide
as §3, §4
After 7 days, the efficacy in % is determined. 100% means that all the beetle larvae have been killed; 0% means that no beetle larvae have been killed.

[9] = test system: caterpillars of the armyworm (Spodoptera frugiperda); assay: Spodoptera frugiperda - spray test; assay type: in vivo; details: application rate 500 g/ha, maize leaf discs, after 7 days
Protocol: as §5, §3, §4
Leaf discs of maize (Zea mays) are sprayed with an active compound preparation of the desired concentration and, after drying, populated with caterpillars of the armyworm (Spodoptera frugiperda).
After 7 days, the efficacy in % is determined. 100% means that all the caterpillars have been killed; 0% means that no caterpillar has been killed.

[10] = test system: greenhouse red spider mite (Tetranychus urticae); assay: Tetranychus urticae - spray test, OP-resistant; assay type: in vivo; details: application rate 500 g/ha, bean leaf discs, after 6 days
Protocol: as §5, §3, §4
Discs of bean leaves (Phaseolus vulgaris) infested with all stages of the greenhouse red spider mite (Tetranychus urticae) are sprayed with an active compound preparation of the desired concentration.
After 6 days, the efficacy in % is determined. 100% means that all the spider mites have been killed; 0% means that no spider mites have been killed.

[11] = test system: southern root-knot nematode (Meloidogyne incognita); assay: Meloidogyne incognita test; assay type: in vivo; details: application rate 20 ppm, lettuce, after 14 days
Protocol: Solvent: 125.0 parts by weight of acetone
To produce a suitable preparation of active compound, 1 part by weight of active compound is mixed with the stated amount of solvent and the concentrate is diluted with water to the desired concentration.
Vessels are filled with sand, active compound solution, an egg/larvae suspension of the southern root-knot nematode (Meloidogyne incognita) and lettuce seeds. The lettuce seeds germinate and the plants develop. The galls develop on the roots.
After 14 days, the nematicidal efficacy in % is determined by the formation of galls. 100% means that no galls were found; 0% means that the number of galls on the treated plants corresponds to the untreated control.

Row | Compound | log P (neutral) [1] | efficacy (fleas dead or moribund) [2] [%] | efficacy (no laying of fertile eggs) [3] [%] | efficacy (kill in %) [4] [%] | efficacy (kill in %) [5] [%] | efficacy (kill in %) [6] [%] | efficacy (aphids killed) [7] [%] | efficacy (beetle larvae killed) [8] [%] | efficacy (caterpillars killed) [9] [%] | efficacy (spider mites killed) [10] [%] | nematicidal efficacy (formation of galls) [11] [%] | chromatographic logP [1]
1 | CCS(=O)(=O)c1ccc(-n2cnn(-c3ccccc3F)c2=O)nc1-c1nc2cc(C(F)(F)F)ncc2n1C [Example I-1] | Example I-1: logP (neutral): 3.03 ^1H-NMR(400.0 MHz, d6-DMSO): δ = | 100 | 80 | 100 | 100 | 80 | 90 | 100 | 100 | 100 | – | –
2 | CCS(=O)(=O)c1ccc(-n2ccn(-c3ccc(Br)cc3)c2=O)nc1-c1nc2cc(C(F)(F)F)ncc2n1C [Example I-3] | Example I-3: logP (neutral): 3.87 ^1H-NMR(400.0 MHz, d6-DMSO): δ = | – | 95 | 100 | 100 | 90 | 90 | 100 | 100 | – | – | –
3 | CCS(=O)(=O)c1ccc(-n2ncn(-c3ccc(F)cc3)c2=O)nc1-c1nc2cc(C(F)(F)F)ncc2n1C [Example I-8] | Example I-8: logP (neutral): 2.75 ^1H-NMR(400.0 MHz, d6-DMSO): δ = | – | – | – | – | – | 100 | 100 | 100 | – | 90 | –
4 | CCS(=O)(=O)c1ccc(-n2ncn(-c3ccccc3)c2=O)nc1-c1nc2cc(C(F)(F)F)ncc2n1C [Example I-15] | Example I-15: logP (neutral): 2.70 1H-NMR(400.0 MHz, d6-DMSO): □ = | 100 | 80 | 100 | 100 | – | – | 100 | 100 | 70 | 100 | –
5 | CCS(=O)(=O)c1ccc(-n2ncn(-c3cccnc3)c2=O)nc1-c1nc2cc(C(F)(F)F)ncc2n1C [Example I-17] | Example I-17: logP (neutral): 2.06 1H-NMR(400.0 MHz, d6-DMSO): □ = | – | – | 95 | 100 | – | 90 | 100 | – | 90 | 100 | –
6 | CCS(=O)(=O)c1ccc(-n2ncn(-c3ccccc3F)c2=O)nc1-c1nc2cc(C(F)(F)F)ncc2n1C [Example I-18] | Example I-18: logP (neutral): 2.73: 1H-NMR(400.0 MHz, d6-DMSO): □ = | 100 | 95 | 100 | 100 | 85 | 90 | 100 | 100 | – | – | –
7 | CCS(=O)(=O)c1ccc(-n2ccc(-c3ncccc3Cl)n2)nc1-c1nc2cc(C(F)(F)F)ncc2n1C [Example I-24] | Example I-24: logP (neutral): 2.80 1H-NMR(400.0 MHz, d6-DMSO): □ = | 100 | – | – | 100 | – | – | 100 | 100 | – | – | –
8 | CCS(=O)(=O)c1ccc(-c2ccn(-c3cccnc3)n2)nc1-c1nc2cc(C(F)(F)F)ncc2n1C [Example I-30, 2-{3-(Ethylsulfonyl)-6-[1-(pyridin-3-yl)-1H-pyrazol-3-yl]pyridin-2-yl}-3-methyl-6-(trifluoromethyl)-3H-imidazo[4,5-c]pyridine] | – | – | – | – | 100 | – | 100 | 100 | 100 | – | 90 | 2.73
9 | CCS(=O)(=O)c1ccc(-n2cnn(-c3ccccc3F)c2=O)nc1-c1nc2cc(C(F)(F)F)cnc2n1C [Example I-32] | Example I-32: logP (neutral): 3.52 1H-NMR(400.0 MHz, d6-DMSO): □ = | – | 80 | 100 | 100 | 100 | 90 | 100 | 100 | – | – | –
10 | CCS(=O)(=O)c1ccc(-n2ncn(-c3ccc(Cl)cc3)c2=O)nc1-c1nc2cc(C(F)(F)F)cnc2n1C [Example I-33, 4-(4-Chlorophenyl)-2-{5-(ethylsulfonyl)-6-[3-methyl-6-(trifluoromethyl)-3H-imidazo[4,5-b]pyridin-2-yl]pyridin-2-yl}-2,4-dihydro-3H-1,2,4-triazol-3-one] | – | – | – | – | – | – | 90 | 100 | 100 | 90 | 100 | 3.52
